Reference: ChEMBL document CHEMBL3097995, “NAD-based inhibitors with anticancer potential” (Bioorg Med Chem Lett, 2014)

How the values were obtained:
K562 = assay: Antiproliferative activity against human K562 cells; type: functional, cell-based
[1] = target: Inosine-5'-monophosphate dehydrogenase 1 (Homo sapiens, UniProt P20839); assay: Inhibition of IMPDH1 (unknown origin)
[2] = target: Inosine-5'-monophosphate dehydrogenase 2 (Homo sapiens, UniProt P12268); assay: Inhibition of IMPDH2 (unknown origin)
PC-3 = assay: Antiproliferative activity against human PC3 cells; type: functional, cell-based
HL-60 = assay: Antiproliferative activity against human HL60 cells; type: functional, cell-based
DU-145 = assay: Antiproliferative activity against human DU145 cells; type: functional, cell-based

Sequence of Inosine-5'-monophosphate dehydrogenase 1 (P20839 whole entry): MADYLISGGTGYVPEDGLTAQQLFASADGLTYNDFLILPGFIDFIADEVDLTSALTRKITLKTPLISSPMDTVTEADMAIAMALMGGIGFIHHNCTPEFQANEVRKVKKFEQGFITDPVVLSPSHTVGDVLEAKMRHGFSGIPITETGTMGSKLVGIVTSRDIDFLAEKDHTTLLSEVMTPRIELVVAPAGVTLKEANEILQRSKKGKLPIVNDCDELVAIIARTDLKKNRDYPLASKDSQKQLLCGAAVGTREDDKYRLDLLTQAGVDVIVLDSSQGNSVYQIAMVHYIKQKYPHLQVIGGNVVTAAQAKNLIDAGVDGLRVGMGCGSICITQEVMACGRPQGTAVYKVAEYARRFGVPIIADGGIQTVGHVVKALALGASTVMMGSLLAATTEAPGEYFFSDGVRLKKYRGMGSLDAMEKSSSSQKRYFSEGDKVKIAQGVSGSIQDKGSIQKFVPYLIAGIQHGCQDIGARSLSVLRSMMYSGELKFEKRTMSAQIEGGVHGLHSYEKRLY

IC50 (K562) [µM] | Ki [1] [µM] | Ki [2] [µM] | IC50 (PC-3) [µM] | IC50 (HL-60) [µM] | IC50 (DU-145) [µM] | Structure (SMILES)
> 100 | 0.259 | 0.188 | > 100 | > 100 | > 100 | COc1c(C)c2c(c(O)c1C/C=C(\C)CCC(=O)N[C@@H](Cc1ccccc1)C(=O)NC[C@H]1O[C@@H](n3cnc4c(N)ncnc43)[C@H](O)[C@@H]1O)C(=O)OC2
– | 0.906 | 0.524 | – | – | – | COc1c(C)c2c(c(O)c1C/C=C(\C)CCC(=O)N1CCC[C@H]1C(=O)O)C(=O)OC2
> 100 | 1.68 | 0.215 | > 100 | > 100 | > 100 | COc1c(C)c2c(c(O)c1C/C=C(\C)CCC(=O)N[C@@H](Cc1ccc(O)cc1)C(=O)O)C(=O)OC2
> 100 | 4.31 | 2.67 | > 100 | > 100 | 10 | COc1c(C)c2c(c(O)c1C/C=C(\C)CCC(=O)N[C@H](Cc1ccccc1)C(=O)O)C(=O)OC2
50 | 4.36 | 0.437 | > 100 | 35 | > 100 | COC(=O)[C@H](Cc1ccccc1)NC(=O)CC/C(C)=C/Cc1c(O)c2c(c(C)c1OC)COC2=O
29 | 5.56 | 2.4 | 70 | 41 | 10 | COC(=O)[C@@H](Cc1ccccc1)NC(=O)CC/C(C)=C/Cc1c(O)c2c(c(C)c1OC)COC2=O
49 | 0.265 | 0.084 | > 100 | > 100 | > 100 | COc1c(C)c2c(c(O)c1C/C=C(\C)CCC(=O)NC[C@H]1O[C@@H](n3cnc4c(N)ncnc43)[C@H](O)[C@@H]1O)C(=O)OC2
55 | 0.132 | 0.175 | > 100 | 72 | > 100 | COc1c(C)c2c(c(O)c1C/C=C(\C)CCC(=O)N[C@H](C(=O)O)C(C)C)C(=O)OC2
> 100 | 0.056 | 0.04 | > 100 | > 100 | > 100 | COc1c(C)c2c(c(O)c1C/C=C(\C)CCC(=O)N[C@H](Cc1c[nH]c3ccccc13)C(=O)NC[C@H]1O[C@@H](n3cnc4c(N)ncnc43)[C@H](O)[C@@H]1O)C(=O)OC2
> 100 | 0.003 | 0.088 | > 100 | > 100 | > 100 | COc1c(C)c2c(c(O)c1C/C=C(\C)CCC(=O)N[C@@H](C(=O)NC[C@H]1O[C@@H](n3cnc4c(N)ncnc43)[C@H](O)[C@@H]1O)C(C)C)C(=O)OC2
> 100 | 0.038 | 0.0126 | > 100 | > 100 | > 100 | COc1c(C)c2c(c(O)c1C/C=C(\C)CCC(=O)N[C@H](Cc1ccccc1)C(=O)NC[C@H]1O[C@@H](n3cnc4c(N)ncnc43)[C@H](O)[C@@H]1O)C(=O)OC2
> 100 | 0.164 | 0.188 | > 100 | > 100 | > 100 | COc1c(C)c2c(c(O)c1C/C=C(\C)CCC(=O)N[C@@H](Cc1c[nH]c3ccccc13)C(=O)NC[C@H]1O[C@@H](n3cnc4c(N)ncnc43)[C@H](O)[C@@H]1O)C(=O)OC2
6.2 | 0.733 | 0.233 | > 100 | 8.3 | 9.7 | COC(=O)[C@H](Cc1c[nH]c2ccccc12)NC(=O)CC/C(C)=C/Cc1c(O)c2c(c(C)c1OC)COC2=O
3 | 2.2 | 0.147 | – | 4.5 | 8.7 | COC(=O)[C@H](CCSC)NC(=O)CC/C(C)=C/Cc1c(O)c2c(c(C)c1OC)COC2=O
8.3 | 3.77 | 0.967 | > 100 | 31 | 39 | COC(=O)[C@@H](NC(=O)CC/C(C)=C/Cc1c(O)c2c(c(C)c1OC)COC2=O)C(C)C
4.2 | 1.02 | 0.094 | > 100 | 18 | 13 | COC(=O)[C@H](CO)NC(=O)CC/C(C)=C/Cc1c(O)c2c(c(C)c1OC)COC2=O
14 | 0.144 | 0.438 | > 100 | 35 | > 100 | COC(=O)[C@@H](Cc1c[nH]c2ccccc12)NC(=O)CC/C(C)=C/Cc1c(O)c2c(c(C)c1OC)COC2=O
10 | 0.892 | 0.321 | > 100 | > 100 | > 100 | COc1c(C)c2c(c(O)c1C/C=C(\C)CCC(=O)NCC(=O)O)C(=O)OC2
> 100 | 0.032 | 0.174 | > 100 | > 100 | > 100 | COc1c(C)c2c(c(O)c1C/C=C(\C)CCC(=O)N[C@H](Cc1c[nH]c3ccccc13)C(=O)O)C(=O)OC2
> 100 | 0.056 | 0.235 | > 100 | > 100 | > 100 | COc1c(C)c2c(c(O)c1C/C=C(\C)CCC(=O)N[C@@H](Cc1c[nH]c3ccccc13)C(=O)O)C(=O)OC2
> 100 | 2.03 | 1.23 | > 100 | > 100 | > 100 | COc1c(C)c2c(c(O)c1C/C=C(\C)CCC(=O)N[C@@H](C(=O)O)C(C)C)C(=O)OC2
> 100 | 0.019 | 0.07 | > 100 | > 100 | > 100 | COc1c(C)c2c(c(O)c1C/C=C(\C)CCC(=O)N[C@H](C(=O)NC[C@H]1O[C@@H](n3cnc4c(N)ncnc43)[C@H](O)[C@@H]1O)C(C)C)C(=O)OC2
> 100 | 5.13 | 0.134 | > 100 | > 100 | > 100 | COc1c(C)c2c(c(O)c1C/C=C(\C)CCC(=O)N[C@@H](CCSC)C(=O)O)C(=O)OC2
29 | 7.72 | 1.96 | 61 | 36 | 16 | COC(=O)[C@H](NC(=O)CC/C(C)=C/Cc1c(O)c2c(c(C)c1OC)COC2=O)C(C)C
> 100 | 0.854 | 0.163 | > 100 | > 100 | > 100 | COc1c(C)c2c(c(O)c1C/C=C(\C)CCC(=O)N[C@@H](Cc1ccccc1)C(=O)O)C(=O)OC2
> 100 | 0.259 | 0.188 | > 100 | > 100 | > 100 | COc1c(C)c2c(c(O)c1C/C=C(\C)CCC(=O)NCC(=O)NC[C@H]1O[C@@H](n3cnc4c(N)ncnc43)[C@H](O)[C@@H]1O)C(=O)OC2
6.8 | 1.83 | 0.364 | 11 | 4.7 | 6.3 | COC(=O)[C@H](Cc1ccc(O)cc1)NC(=O)CC/C(C)=C/Cc1c(O)c2c(c(C)c1OC)COC2=O
16 | 0.522 | 0.487 | 79 | 22 | 3.1 | COC(=O)CNC(=O)CC/C(C)=C/Cc1c(O)c2c(c(C)c1OC)COC2=O
